From patent publication US20240158386A1, “BENZOXAZOLONE INHIBITORS OF INFLAMMASOMES” (ICAHN SCHOOL OF MEDICINE AT MOUNT SINAI, priority 2021, published 2024)

Assays:
[1] = test system: IL6 production; assay: IL-6 production in cell culture supernatant (ELISA); type: cell-based, mouse; conditions: FIG. 3B
Experimental: (§1) Cytokine quantification. IL-1β in cell supernatants and brain tissue samples—after the different treatment groups—was quantified using the Mouse IL-1 beta/IL-1F2 DuoSet ELISA kit (R&D systems), IL-6 in cell culture supernatant was measured through the Mouse IL-6 ELISA kit (ThermoFisher), TNF-α in cell culture supernatants was determined using the Mouse TNF-alpha DuoSet ELISA (R*D systems), and IL-18 in brain tissue was measured through the IL-18 Mouse ELISA Kit (Invitrogen) following the manufacturers' recommended protocol. IL-1β precursor and cleaved IL-1β in the FC of mice treated with vehicles, LPS, or C77-LPS was assessed by western blot. All samples were run in technical duplicates.

[2] = test system: TNF-α production; assay: TNF-α production in cell culture supernatant (ELISA); type: cell-based, mouse; conditions: FIG. 3B
Experimental: as §1

[3] = test system: ASC specks following NLRP3 activation; assay: ASC speck formation / ASC oligomerization in m-Cerulean ASC labeled macrophages; type: cell-based, murine; conditions: NLRP3 activation with LPS and ATP or HMGB1 and ATP (FIG. 3F)
Experimental: m-Cerulean ASC labeled macrophages. NLRP3 Knock Out immortalized murine macrophages, stably expressing m-Cerulean-ASC, and NLRP3-Flag were a kind donation of Prof. Eicke Latz, (Institute of Innate Immunity, University of Bonn, Germany). Murine macrophages were maintained in high glucose DMEM medium supplemented with 10% FBS, 1% sodium pyruvate, and passaged every 2-3 days, before reaching confluence.
For ASC speck formation evaluation, murine macrophages were seeded in 96 well SCREENSTAR black microplates with clear base, 24 hours before stimulation. Then, cells were incubated for 1 hour with different concentrations of the inhibitors, or with the same DMSO volume for positive and negative controls for NLRP3 activation—DMSO-LPS-ATP or only DMSO, respectively. 0.5 μM MCC950 was used as a positive control for inhibition of NLRP3-mediated ASC oligomerization. NLRP3 activation was induced through treatment with 250 ng/ml LPS for 2.5 hours, followed by addition of 4.5 mM ATP for 45 min. Cells were then fixed and counterstained in a single step, as previously described (Stutz, A. et al. ASC Speck Formation as a Readout for Inflammasome Activation. in The Inflammasome (eds. De Nardo, C. M. & Latz, E.) vol. 1040 91-101 (Humana Press, 2013).). For that, a stock solution of DRAQS in formaldehyde was used, being the final concentrations 1% formaldehyde and 2.5 μM DRAQ5.
ASC oligomerization determination. […] ASC specks in cells pretreated with C75, C77, C78, and C97, before NLRP3 activation (as above indicated), were visualized with a widefield Leica DMi8 fluorescence microscope, using the 20× objective. […] For image analysis and speck quantification, ImageJ was used https://imagej.nih.gov/ij/index.html. Speck and nuclei quantification was performed as previously described in Stutz et al. When required (overlapping nuclei), the watershed separation algorithm was used to separate the particles. […] The rate of speck positive cells was calculated by normalizing the number of speck positive cells to the number of nuclei. […]

[4] = test system: NLRP3; assay: In-vivo assessment of C77: brain cytokines in LPS-treated mice; parameters: species or system WT C57BL/6J mice
Experimental: as §1
Animals used in in-vivo assessments. WT C57BL/6J mice (stock #000664) were obtained from The Jackson Laboratory. Mice were housed in groups of five animals per cage on a 12:12 hours light/dark cycle. Water and food were provided ad libitum. 8-10 weeks males were used for experiments. All procedures were approved by the Institutional Animal Care and use Committee of the Icahn School of Medicine at Mount Sinai.
In-vivo assessment of C77. The ability of C77 to inhibit NLRP3 in-vivo was evaluated using WT C57BL/6J mice. C77 (50 mg/kg), or the same volume of DMSO vehicle, was intraperitoneally injected 2 hours before of LPS (15 mg/kg) or vehicle (PBS) administration. 1.5 hours later, the animals were sacrificed and their brain was isolated. Cortex, frontal cortex, hippocampus, and cerebellum regions from the right hemisphere were obtained for IL-1β analysis. The left hemisphere was used for gene expression analysis. N=5 animals per group.

[5] = 50 mg/kg IP 2 hours before 15 mg/kg LPS IP

## O=C(Cn1c(=O)oc2ccccc21)NCc1cncc(-c2ccsc2)c1 [Compound C77]
[1]
  inhibition of IL6 production: did not inhibit
[2]
  inhibition of TNF-α production: did not inhibit
[3]
  concentrations with observable reduction of speck positive cells: ≥ 10 nM
[4]; [5]
  IL-1β levels in the cerebellum: significantly reduced IL-1β levels
  IL-1β levels in the frontal cortex: significantly reduced IL-1β levels
  IL-1β levels in the hippocampus: significantly reduced IL-1β levels
  IL-18 levels in the frontal cortex: significantly reduced IL-18 levels
[4]; frontal cortex of mice treated with C77-LPS
  cleaved IL-1β versus pro IL-1β by western blot: reduces the cleaved form of IL-β and not pro IL-1β
